3 molecules from ChEMBL document CHEMBL1142592, “Additional pyrrolomycins from cultures of Streptomyces fumanus” (2005) can be followed below.

Molecules are shown by their SMILES. Values after ≈ are worked out from the molar mass of the structure shown.

Format in all cases: functional
Test [1] has as its system Escherichia coli. Put plainly: Antimicrobial activity against wild type Escherichia coli by agar dilution method. On the technique in general: In agar dilution the substance is mixed into plates at graded concentrations.
Test [2] concerns Escherichia coli. In words: Antimicrobial activity against permeability mutant Escherichia coli imp by agar dilution method.
Test [3] deals with Staphylococcus aureus. In words: Antimicrobial activity against wild type Staphylococcus aureus by agar dilution method.
The next test relates to Enterococcus faecium. Put plainly: Antimicrobial activity against vancomycin-resistant Enterococcus faecium by agar dilution method.
Test [4] deals with Staphylococcus aureus. In words: Antimicrobial activity against methicillin-resistant Staphylococcus aureus by agar dilution method.

Usually MIC stands for the lowest concentration that inhibits growth of the organism. A higher MIC goes with weaker potency.

Take `O=[N+]([O-])c1c([C@@H](O)c2cc(Cl)cc(Cl)c2O)[nH]c(Cl)c1Cl` [PYRROLOMYCIN G]: the minimal inhibitory concentration (MIC) with Escherichia coli [1] is more than 128 µg/mL; in the test on Escherichia coli [2], 32 µg/mL (≈ 86 µM); in the test with Staphylococcus aureus [3], 8 µg/mL (≈ 21.5 µM); against Enterococcus faecium it was 8 µg/mL (≈ 21.5 µM); against Staphylococcus aureus [4], 8 µg/mL (≈ 21.5 µM).

With `COc1c(Cl)cc(Cl)cc1[C@H](O)c1[nH]c(Cl)c(Cl)c1[N+](=O)[O-]` [PYRROLOMYCIN H], the MIC against Escherichia coli [1] came to 128 µg/mL (≈ 332 µM); with Escherichia coli [2] it was 4 µg/mL (≈ 10.4 µM); in the test on Staphylococcus aureus [3], 1 µg/mL (≈ 2.59 µM); with Staphylococcus aureus [4] it was 2 µg/mL (≈ 5.18 µM).

As for `COc1c(Cl)cc(Cl)cc1C(=O)c1[nH]c(Cl)c(Cl)c1Cl` [PYRROLOMYCIN J], the MIC is more than 128 µg/mL with Escherichia coli [1], 8 µg/mL (≈ 21.4 µM) in the test on Escherichia coli [2], 1 µg/mL (≈ 2.68 µM) in the test with Staphylococcus aureus [3] and 2 µg/mL (≈ 5.36 µM) against Staphylococcus aureus [4].
